Source: patent publication US4698344A, “1-Heteroaryl-4-aryl-pyrazolin-5-ones for use as medicaments” (priority 1984, dated 1987)
Read-outs that look alike come from different tables or passages of the source.

What was measured:
cyclooxygenase [1] = details: background statement; cited from earlier work
[2] = administered systemically (for example orally); cited from earlier work
lipoxygenase = target: T1, lipoxygenase (Rattus norvegicus, UniProt P12527); test: Lipoxygenase activity in homogenates of RBL-1 cells; format: biochemical; details: concentration 0.5-1 μg/ml; negative = inhibition
T1 construct: homogenates of RBL-1 cells; endogenous in cells; host or cells: RBL-1 (rat basophilic leukaemia) cells, homogenate
T1 sequence (P12527 1-673): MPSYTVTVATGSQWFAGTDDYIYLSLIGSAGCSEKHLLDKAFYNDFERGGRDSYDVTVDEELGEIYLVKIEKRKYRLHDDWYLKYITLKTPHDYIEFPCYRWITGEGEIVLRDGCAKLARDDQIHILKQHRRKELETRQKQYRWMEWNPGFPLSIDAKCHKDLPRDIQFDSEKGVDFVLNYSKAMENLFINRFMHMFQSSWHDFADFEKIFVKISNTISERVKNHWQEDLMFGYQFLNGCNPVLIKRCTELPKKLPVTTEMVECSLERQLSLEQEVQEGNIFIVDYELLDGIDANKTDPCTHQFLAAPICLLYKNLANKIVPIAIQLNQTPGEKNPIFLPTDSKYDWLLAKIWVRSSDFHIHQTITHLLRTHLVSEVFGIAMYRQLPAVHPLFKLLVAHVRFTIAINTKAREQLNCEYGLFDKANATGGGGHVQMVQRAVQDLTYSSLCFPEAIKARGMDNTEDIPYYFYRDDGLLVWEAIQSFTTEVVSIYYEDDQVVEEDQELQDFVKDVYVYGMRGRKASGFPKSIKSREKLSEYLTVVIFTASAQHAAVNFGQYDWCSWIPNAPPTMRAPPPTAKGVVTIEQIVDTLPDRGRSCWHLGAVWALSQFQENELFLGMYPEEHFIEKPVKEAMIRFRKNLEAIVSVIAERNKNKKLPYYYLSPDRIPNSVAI
Text: (§1) Basophilic leukaemia cells from rats (RBL-1) synthesize both lipoxygenase and cyclooxygenase products from ^14 C-arachidonic acid with which they are supplied. […] The products formed were separated by thin layer chromatography and quantified in a scanner.

cyclooxygenase [3] = target: T2, cyclooxygenase (Rattus norvegicus, UniProt Q63921); test: Cyclooxygenase activity in homogenates of RBL-1 cells; format: biochemical; details: concentration 0.5-1 μg/ml; negative = inhibition
T2 construct: homogenates of RBL-1 cells; endogenous in cells; host or cells: RBL-1 (rat basophilic leukaemia) cells, homogenate
T2 sequence (Q63921 27-602): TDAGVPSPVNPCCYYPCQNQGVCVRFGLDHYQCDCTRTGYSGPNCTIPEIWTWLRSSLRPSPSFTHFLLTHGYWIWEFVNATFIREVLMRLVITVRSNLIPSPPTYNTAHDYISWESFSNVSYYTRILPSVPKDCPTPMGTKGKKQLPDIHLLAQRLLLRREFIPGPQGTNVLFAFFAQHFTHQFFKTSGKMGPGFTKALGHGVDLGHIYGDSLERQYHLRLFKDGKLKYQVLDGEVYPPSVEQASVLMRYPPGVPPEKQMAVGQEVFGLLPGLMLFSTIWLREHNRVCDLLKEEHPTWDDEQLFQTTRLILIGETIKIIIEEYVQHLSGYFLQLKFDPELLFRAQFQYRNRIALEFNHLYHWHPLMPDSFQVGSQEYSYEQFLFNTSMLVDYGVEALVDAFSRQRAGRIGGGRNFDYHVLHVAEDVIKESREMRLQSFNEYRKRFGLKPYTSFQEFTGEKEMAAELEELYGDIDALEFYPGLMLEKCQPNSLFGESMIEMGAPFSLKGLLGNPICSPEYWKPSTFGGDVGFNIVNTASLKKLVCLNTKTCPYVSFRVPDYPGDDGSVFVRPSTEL
Text: as §1

5-lipoxygenase = target: T3, 5-lipoxygenase (Homo sapiens, UniProt P09917); test: Lipoxygenase activity (LTB4 synthesis) in human PMN leukocytes stimulated with A 23187; format: cell-based; details: for inhibition at 10 µg/mL: read-out: Inhibition of LTB4 synthesis in human PMN's; for Effective threshold concentration, inhibition of LTB4 synthesis: human PMN's
T3 construct: endogenous in cells; host or cells: human polymorphonuclear leukocytes from heparinized whole blood
T3 sequence (P09917 1-674): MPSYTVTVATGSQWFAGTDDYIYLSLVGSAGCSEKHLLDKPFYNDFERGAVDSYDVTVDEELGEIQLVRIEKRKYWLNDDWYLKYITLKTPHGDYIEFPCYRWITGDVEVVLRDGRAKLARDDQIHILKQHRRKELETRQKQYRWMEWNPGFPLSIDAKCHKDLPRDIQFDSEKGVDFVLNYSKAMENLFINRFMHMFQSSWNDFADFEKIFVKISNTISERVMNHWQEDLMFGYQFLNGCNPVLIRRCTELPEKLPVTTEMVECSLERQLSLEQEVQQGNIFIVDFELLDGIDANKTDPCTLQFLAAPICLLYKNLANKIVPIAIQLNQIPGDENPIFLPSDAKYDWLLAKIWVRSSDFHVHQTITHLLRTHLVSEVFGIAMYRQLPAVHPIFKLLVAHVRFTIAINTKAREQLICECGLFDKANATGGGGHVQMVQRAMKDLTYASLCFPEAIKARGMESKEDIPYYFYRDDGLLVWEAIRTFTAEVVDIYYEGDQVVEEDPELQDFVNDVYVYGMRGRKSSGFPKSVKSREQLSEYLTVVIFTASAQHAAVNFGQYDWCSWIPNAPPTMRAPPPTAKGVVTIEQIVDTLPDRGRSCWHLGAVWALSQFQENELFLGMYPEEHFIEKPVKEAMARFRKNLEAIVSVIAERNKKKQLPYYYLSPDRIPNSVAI
Protocol: The polymorphonuclear leukocytes of humans metabolize arachidonic acid to give 5-hydroxy-5,8,11,14-eicosatetraenoic acid (5-HETE) and leukotriene B4 (5S, 12R-dihydroxy-6-cis, 8,10-trans-14ciseicosatetraenoic acid). Inhibition of the release of 5-HETE and leukotriene B4 from leukocytes is a measure of the lipoxygenase-inhibiting effect of the compounds according to the invention.
After 15 minutes, the lipoxygenase products were extracted from the acidified incubation medium and separated by means of HPLC.

[4] = test system: release of leukotrienes (SRS-A); test: Passive peritoneal anaphylaxis (rats); format: in vivo, rat; details: 100 mg/kg perorally
Protocol: The effect of substances on the release of mediators, in particular the release of leukotrienes, is recorded with this in vivo method. […] Histamine is not released during this, so that the lipoxygenase-inhibiting action of test substances can be investigated selectively.

[5] = test system: carrageenan-induced oedema of the rat paw; test: Carrageenan-induced oedema of the rat paw; format: in vivo; details: for % inhibition of the carrageenan oedema: oral, 2.5 mg/kg, rats, 5 hours after oedema provocation
Protocol: The antiinflammatory action of the test substances following oral administration was determined with the aid of carrageenan-induced oedema of the rat paw.
The experiments were carried out with male rats, strain: Bor:WLSW (SPF-Cpb); weight 150 to 220 g. One hour before inducing the oedema (0.1 ml of carrageenan suspension/animal, subplantar injection), the substance to be tested was administered to the animals as a suspension in tragacanth with the aid of a stomach tube; as a control, a second group of animals was treated with tragacanth without the substance.
The paw volumes were measured by the method of F. Kemper and G. Ameln Z. exp.

12-lipoxygenase = target: T4, 12-lipoxygenase (Homo sapiens, UniProt P18054); test: Arachidonic acid metabolism in human platelets: 12-lipoxygenase activity; format: cell-based
T4 construct: washed human platelets; endogenous in cells; host or cells: washed human platelets
T4 sequence (P18054 1-663): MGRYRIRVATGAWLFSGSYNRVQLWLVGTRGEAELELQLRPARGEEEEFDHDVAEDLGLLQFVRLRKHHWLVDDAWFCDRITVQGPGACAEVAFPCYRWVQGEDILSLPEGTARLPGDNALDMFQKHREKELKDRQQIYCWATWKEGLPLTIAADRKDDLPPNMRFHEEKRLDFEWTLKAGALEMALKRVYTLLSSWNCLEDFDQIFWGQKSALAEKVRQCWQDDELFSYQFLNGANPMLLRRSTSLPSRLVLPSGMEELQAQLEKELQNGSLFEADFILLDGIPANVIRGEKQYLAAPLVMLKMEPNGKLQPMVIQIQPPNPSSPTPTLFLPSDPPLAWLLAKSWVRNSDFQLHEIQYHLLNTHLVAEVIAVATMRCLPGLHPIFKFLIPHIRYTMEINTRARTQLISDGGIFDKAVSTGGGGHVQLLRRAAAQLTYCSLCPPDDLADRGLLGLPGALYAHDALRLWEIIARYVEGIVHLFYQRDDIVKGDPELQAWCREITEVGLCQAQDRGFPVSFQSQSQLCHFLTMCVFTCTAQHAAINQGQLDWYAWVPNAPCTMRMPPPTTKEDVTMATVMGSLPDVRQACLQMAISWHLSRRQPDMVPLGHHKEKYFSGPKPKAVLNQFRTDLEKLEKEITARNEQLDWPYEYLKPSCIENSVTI
Protocol: (§2) The metabolism of radioactively labelled arachidonic acid on washed human platelets is utilised in this test method. In this in vitro test, the radioactively labelled metabolites are extracted from the reaction mixture and separated by thin layer chromatography. The autoradiogram is evaluated with a thin layer scanner. Under these test conditions, the labelled metabolites are separated from the unreacted arachidonic acid and can then be evaluated quantitatively.

cyclooxygenase [6] = target: T5, cyclooxygenase (Homo sapiens, UniProt P23219); test: Arachidonic acid metabolism in human platelets: cyclooxygenase activity; format: cell-based
T5 construct: washed human platelets; endogenous in cells; host or cells: washed human platelets
Protocol: as §2

T5 sequence (P23219 24-599): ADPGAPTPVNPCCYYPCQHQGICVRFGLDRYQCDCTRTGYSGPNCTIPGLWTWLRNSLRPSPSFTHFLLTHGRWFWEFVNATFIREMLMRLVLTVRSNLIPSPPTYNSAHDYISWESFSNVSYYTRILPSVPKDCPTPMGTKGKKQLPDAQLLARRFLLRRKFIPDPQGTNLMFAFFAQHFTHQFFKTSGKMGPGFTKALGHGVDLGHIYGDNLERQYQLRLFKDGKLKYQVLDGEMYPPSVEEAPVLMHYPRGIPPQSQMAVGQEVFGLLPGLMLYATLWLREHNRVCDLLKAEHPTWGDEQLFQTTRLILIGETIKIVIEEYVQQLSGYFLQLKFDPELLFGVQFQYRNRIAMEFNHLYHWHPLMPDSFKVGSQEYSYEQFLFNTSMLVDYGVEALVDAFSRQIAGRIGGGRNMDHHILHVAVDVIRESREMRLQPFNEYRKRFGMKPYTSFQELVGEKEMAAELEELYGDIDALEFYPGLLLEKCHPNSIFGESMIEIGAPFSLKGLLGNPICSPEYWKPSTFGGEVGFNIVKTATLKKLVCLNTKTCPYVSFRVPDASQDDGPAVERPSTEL

| SMILES | Action on lipoxygenase (LO): Effect (lipoxygenase) | Action on cyclooxygenase (CO): Effect (cyclooxygenase [3]) | % inhibition of the carrageenan oedema [5] | also measured |
| --- | --- | --- | --- | --- |
| CCCCCC#CCC#CCC#CCC#CCCCC(=O)O [5,8,11,14-eicosatetraynoic acid] | – | – | – | cyclooxygenase activity / potency of known lipoxygenase inhibitors (in words) (cyclooxygenase [1]): either simultaneously active as cyclooxygenase inhibitors or active only at very high concentrations |
| NC1=NN(c2cccc(C(F)(F)F)c2)CC1 [BW 755C, 3-amino-1-(3-trifluoromethylphenyl)-pyrazoline] | – | – | – | toxic side effects (in words) [2]: toxic side effects |
| O=c1c(-c2ccccc2)c[nH]n1-c1ccccn1 [Example 7, 1-pyrid-2-yl-4-phenyl-pyrazolin-5-one] | -66% | +28% | 44% | inhibition at 10 µg/mL (5-lipoxygenase): 92%; % inhibition, passive peritoneal anaphylaxis [4]: 65%; ED50 ([5]; Rattus norvegicus, po, 5 h, read-out: ED50 of oedema inhibition): 9.1 mg/kg |
| O=c1c(-c2ccccc2F)c[nH]n1-c1ccccn1 [Example 8] | -73% | +3% | – | inhibition at 10 µg/mL (5-lipoxygenase; at 10 μg/ml): 71%; Effective threshold concentration, inhibition of LTB4 synthesis (5-lipoxygenase): 1 to 10 µg/mL; Inhibition (threshold concentration), 12-lipoxygenase (12-lipoxygenase): 1 to 10 µg/mL; Inhibition (threshold concentration), cyclooxygenase (cyclooxygenase [6]): 1 to 10 µg/mL |
| O=c1c(-c2ccc(Cl)c(Cl)c2)c[nH]n1-c1ccccn1 [Example 16] | -76% | -19% | – | inhibition at 10 µg/mL (5-lipoxygenase; at 10 μg/ml): 85%; Effective threshold concentration, inhibition of LTB4 synthesis (5-lipoxygenase): 1 to 10 µg/mL; Inhibition (threshold concentration), 12-lipoxygenase (12-lipoxygenase): 1 to 10 µg/mL; Inhibition (threshold concentration), cyclooxygenase (cyclooxygenase [6]): 1 to 10 µg/mL |
| COc1ccc(-c2c[nH]n(-c3ccccn3)c2=O)cc1 [Example 18] | – | – | 22% | – |
| Cc1ccccc1-c1c[nH]n(-c2ccccn2)c1=O [Example 24] | -34% | -2% | – | – |
| Cc1cccc(-c2c[nH]n(-c3ccccn3)c2=O)c1 [Example 25] | – | – | – | % inhibition, passive peritoneal anaphylaxis [4]: 64% |
| O=c1c(-c2cccc(C(F)(F)F)c2)c[nH]n1-c1ccccn1 [Example 27] | – | – | – | % inhibition, passive peritoneal anaphylaxis [4]: 47% |
| O=c1c(-c2ccc(C(F)(F)F)cc2)c[nH]n1-c1ccccn1 [Example 28] | -58% | +5% | 21% | – |
| Cc1[nH]n(-c2ccccn2)c(=O)c1-c1ccccc1 [Example 49] | – | – | 16% | – |
| COc1ccccc1-c1c[nH]n(-c2ccc(Cl)cn2)c1=O [Example 58] | -66% | -17% | – | – |
| Cc1[nH]n(-c2ccc(Cl)cn2)c(=O)c1-c1ccccc1 [Example 63] | – | – | – | inhibition at 10 µg/mL (5-lipoxygenase; at 10 μg/ml): 100%; Effective threshold concentration, inhibition of LTB4 synthesis (5-lipoxygenase): 1 to 10 µg/mL; Inhibition (threshold concentration), 12-lipoxygenase (12-lipoxygenase): 1 to 10 µg/mL; Inhibition (threshold concentration), cyclooxygenase (cyclooxygenase [6]): 1 to 10 µg/mL |
| O=c1c(-c2ccccc2)c[nH]n1-c1ccc([N+](=O)[O-])cn1 [Example 69] | – | – | 34% | – |
| O=c1c(-c2ccccc2)c[nH]n1-c1ncccn1 [Example 103, 1-pyrimid-2-yl-4-phenyl-pyrazolin-5-one] | -42% | – | – | – |
| O=c1c(-c2ccccc2F)c[nH]n1-c1ncccn1 [Example 104] | -46% | +23% | – | – |
| COc1ccc(-c2c[nH]n(-c3ncccn3)c2=O)cc1 [Example 113] | -71% | -11% | – | – |
| O=c1c(-c2ccccc2)c[nH]n1-c1ncc(Cl)cn1 [Example 130] | – | – | 38% | – |
| O=c1c(-c2ccc(C(F)(F)F)cc2)c[nH]n1-c1ncc(Cl)cn1 [Example 135] | – | – | 46% | – |
| CC(Cc1ccc(O)c(O)c1)C(C)Cc1ccc(O)c(O)c1 (stereo not drawn) [nordihydroguaretic acid] | – | – | – | cyclooxygenase activity / potency of known lipoxygenase inhibitors (in words) (cyclooxygenase [1]): either simultaneously active as cyclooxygenase inhibitors or active only at very high concentrations |
| O=C1CCN(c2ccccc2)N1 [phenidone] | – | – | – | cyclooxygenase activity / potency of known lipoxygenase inhibitors (in words) (cyclooxygenase [1]): either simultaneously active as cyclooxygenase inhibitors or active only at very high concentrations |
